Results from PubChem BioAssay AID192 (DTP/NCI, 2004).
“And” between values parts separate entries of the source, which are not always exact repeats. Equal values may be shown once. Inconclusive results and toxic doses are left out. Rule for the calls: active = survival T/C of 150% or more; inactive = T/C below 125% in these data.

System: BDF1 mice, B16 melanoma ip, median survival T/C
Test: NCI In Vivo Anticancer Drug Screen. Data for tumor model B16 Melanoma (intraperitoneal) in B6D2F1 (BDF1) mice
Details: endpoint: median survival time, higher = longer survival
Procedure, shortened: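 Each result divides a survival or tumor-size measurement in the compound-treated group by the same measurement in the vehicle group.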

[1] = dose: 100.0 mg/kg/injection, schedule: Q01DX009 (ip), vehicle: Klucel (hydroxypropylcellulose) (HPC)
[2] = dose: 200.0 mg/kg/injection, schedule: Q01DX009 (ip), vehicle: Klucel (hydroxypropylcellulose) (HPC)
[3] = dose: 25.0 mg/kg/injection, schedule: Q01DX009 (ip), vehicle: saline with Tween-80
[4] = dose: 50.0 mg/kg/injection, schedule: Q01DX009 (ip), vehicle: saline with Tween-80
[5] = dose: 100.0 mg/kg/injection, schedule: Q04DX003 (ip), vehicle: Klucel (hydroxypropylcellulose) (HPC)
[6] = dose: 12.5 mg/kg/injection, schedule: Q01DX009 (ip), vehicle: saline
[7] = dose: 25.0 mg/kg/injection, schedule: Q01DX009 (ip), vehicle: saline
[8] = dose: 50.0 mg/kg/injection, schedule: Q01DX009 (ip), vehicle: saline
[9] = dose: 100.0 mg/kg/injection, schedule: Q01DX009 (ip), vehicle: saline
[10] = dose: 200.0 mg/kg/injection, schedule: Q04DX003 (ip), vehicle: Klucel (hydroxypropylcellulose) (HPC)
[11] = dose: 400.0 mg/kg/injection, schedule: Q01DX009 (ip), vehicle: Klucel (hydroxypropylcellulose) (HPC)
[12] = dose: 400.0 mg/kg/injection, schedule: Q04DX003 (ip), vehicle: Klucel (hydroxypropylcellulose) (HPC)
[13] = dose: 6.25 mg/kg/injection, schedule: Q01DX009 (ip), vehicle: Klucel (hydroxypropylcellulose) (HPC)

Measured: T/C

[N-]=[N+]=CC(=O)CCC(N)C(=O)O (stereo unspecified)
inactive: dose: 0.03 mg/kg/injection, schedule: Q01DX009 (ip), vehicle: saline with Tween-80 95 % of control | dose: 0.05 mg/kg/injection, schedule: Q01DX009 (ip), vehicle: saline 115 % of control | dose: 0.06 mg/kg/injection, schedule: Q01DX009 (ip), vehicle: saline with Tween-80 91 % of control | dose: 0.1 mg/kg/injection, schedule: Q01DX009 (ip), vehicle: saline 104 % of control | dose: 0.12 mg/kg/injection, schedule: Q01DX009 (ip), vehicle: saline with Tween-80 95 % of control | dose: 0.13 mg/kg/injection, schedule: Q01DX009 (ip), vehicle: saline 102 % of control | dose: 6.2 micrograms/kg/injection, schedule: Q01DX009 (ip), vehicle: saline 91 % of control | dose: 12.5 micrograms/kg/injection, schedule: Q01DX009 (ip), vehicle: saline 92 % of control | dose: 25.0 micrograms/kg/injection, schedule: Q01DX009 (ip), vehicle: saline 109 % of control

S=C(Nc1ccccc1)Nc1ccccc1S
inactive: [1] 95 % of control and 107 % of control | [2] 98 % of control and 111 % of control

CC(C)COC(=O)c1ccc(NC(=O)Nc2ccccc2Cl)cc1
inactive: dose: 12.5 mg/kg/injection, schedule: Q01DX009 (ip), vehicle: saline with Tween-80 100 % of control | [3] 93 % of control | [4] 97 % of control

Cc1nc(C(=O)O)c(C)c(=O)[nH]1
inactive: dose: 1.56 mg/kg/injection, schedule: Q01DX009 (ip), vehicle: water 100 % of control | dose: 3.13 mg/kg/injection, schedule: Q01DX009 (ip), vehicle: water 96 % of control | dose: 6.25 mg/kg/injection, schedule: Q01DX009 (ip), vehicle: water 105 % of control | dose: 12.5 mg/kg/injection, schedule: Q01DX009 (ip), vehicle: water 100 % of control

FC(F)(F)S.[Hg]
inactive: dose: 1.25 mg/kg/injection, schedule: Q01DX009 (ip), vehicle: saline 104 % of control | dose: 2.5 mg/kg/injection, schedule: Q01DX009 (ip), vehicle: saline 100 % of control | dose: 5.0 mg/kg/injection, schedule: Q01DX009 (ip), vehicle: saline 102 % of control

O=[N+]([O-])c1cccs1
inactive: dose: 25.0 mg/kg/injection, schedule: Q04DX003 (ip), vehicle: Klucel (hydroxypropylcellulose) (HPC) 105 % of control | dose: 50.0 mg/kg/injection, schedule: Q04DX003 (ip), vehicle: Klucel (hydroxypropylcellulose) (HPC) 105 % of control | [5] 112 % of control

O=C1CC(c2ccc(OCN(CCCl)CCCl)cc2)CC(=O)C1CN(CCCl)CCCl (stereo unspecified)
inactive: dose: 0.5 mg/kg/injection, schedule: Q01DX009 (ip), vehicle: Klucel (hydroxypropylcellulose) (HPC) 97 % of control | dose: 1.0 mg/kg/injection, schedule: Q01DX009 (ip), vehicle: Klucel (hydroxypropylcellulose) (HPC) 100 % of control | dose: 2.0 mg/kg/injection, schedule: Q01DX009 (ip), vehicle: Klucel (hydroxypropylcellulose) (HPC) 100 % of control | dose: 4.0 mg/kg/injection, schedule: Q01DX009 (ip), vehicle: Klucel (hydroxypropylcellulose) (HPC) 99 % of control | dose: 8.0 mg/kg/injection, schedule: Q01DX009 (ip), vehicle: Klucel (hydroxypropylcellulose) (HPC) 104 % of control

COC(OC(CO)C(O)S(=O)(=O)O)C(O)S(=O)(=O)O (stereo unspecified)
inactive: [6] 104 % of control | [7] 107 % of control | [8] 111 % of control | [9] 119 % of control

CC1C=CC(C(N)C(=O)O)O1 (stereo unspecified)
inactive: [6] 97 % of control | [7] 92 % of control

Nc1nc2c(ncn2C2OC(CO)C(O)C2O)c(=O)[nH]1 (stereo unspecified)
inactive: dose: 25.0 mg/kg/injection, schedule: Q01DX009 (ip), vehicle: suspension in saline 101 % of control | dose: 50.0 mg/kg/injection, schedule: Q01DX009 (ip), vehicle: suspension in saline 110 % of control | dose: 100.0 mg/kg/injection, schedule: Q01DX009 (ip), vehicle: suspension in saline 113 % of control | dose: 400.0 mg/kg/injection, schedule: Q01DX009 (ip), vehicle: suspension in saline 116 % of control

Cc1cccc(NC(=O)NC(C)C)c1C
inactive: [1] 100 % of control | [5] 103 % of control | [2] 96 % of control | [10] 107 % of control | [11] 93 % of control | [12] 100 % of control

Cc1c2ccncc2cc2c1[nH]c1ccccc12
inactive: [3] 119 % of control | [4] 121 % of control | dose: 100.0 mg/kg/injection, schedule: Q01DX009 (ip), vehicle: saline with Tween-80 122 % of control

CCCCCCCCCCCCNC(=O)Nc1ccc(CC)cc1
inactive: [1] 92 % of control | [2] 100 % of control | [11] 100 % of control

C[N+]1=CN(c2ccc(Cl)cc2)Cc2cc(Cl)ccc21
inactive: [1] 88 % of control | [5] 88 % of control | [2] 86 % of control | [10] 102 % of control | [11] 102 % of control | [12] 100 % of control

CN(N)P(=S)(c1ccccc1)N(C)N
inactive: [13] 106 % of control | dose: 12.5 mg/kg/injection, schedule: Q01DX009 (ip), vehicle: Klucel (hydroxypropylcellulose) (HPC) 103 % of control

O=c1[nH]c(=O)n(C2CC(O)C(CO)O2)cc1C(F)(F)F (stereo unspecified)
inactive: [6] 104 % of control | dose: 20.0 mg/kg/injection, schedule: Q01DX009 (ip), vehicle: saline 105 % of control | [7] 102 % of control | [8] 112 % of control

NCCN1CCc2ccccc2C1
inactive: dose: 6.25 mg/kg/injection, schedule: Q04DX003 (ip), vehicle: saline 113 % of control | dose: 12.5 mg/kg/injection, schedule: Q04DX003 (ip), vehicle: saline 110 % of control | dose: 16.5 mg/kg/injection, schedule: Q04DX003 (ip), vehicle: saline 112 % of control | dose: 25.0 mg/kg/injection, schedule: Q04DX003 (ip), vehicle: saline 112 % of control and 115 % of control | dose: 37.5 mg/kg/injection, schedule: Q04DX003 (ip), vehicle: saline 110 % of control

O[C@H](c1cc(C(F)(F)F)nc2c(C(F)(F)F)cccc12)[C@@H]1CCCCN1
inactive: dose: 0.78 mg/kg/injection, schedule: Q01DX009 (ip), vehicle: Klucel (hydroxypropylcellulose) (HPC) 97 % of control | dose: 1.56 mg/kg/injection, schedule: Q01DX009 (ip), vehicle: Klucel (hydroxypropylcellulose) (HPC) 104 % of control | dose: 3.12 mg/kg/injection, schedule: Q01DX009 (ip), vehicle: Klucel (hydroxypropylcellulose) (HPC) 113 % of control | dose: 4.5 mg/kg/injection, schedule: Q04DX003 (ip), vehicle: Klucel (hydroxypropylcellulose) (HPC) 113 % of control | [13] 90 % of control | dose: 9.0 mg/kg/injection, schedule: Q04DX003 (ip), vehicle: Klucel (hydroxypropylcellulose) (HPC) 100 % of control

Br/C=C/C[N+]12CN3CN(CN(C3)C1)C2
inactive: [6] 117 % of control | [7] 103 % of control | [8] 110 % of control

Cc1nn(C2CC(O)C(O)C(CO)O2)c(=O)[nH]c1=O (stereo unspecified)
inactive: [8] 95 % of control | [9] 86 % of control | dose: 400.0 mg/kg/injection, schedule: Q01DX009 (ip), vehicle: saline 86 % of control

Cc1c(Cl)cc(Cl)c(N)c1Cl
inactive: dose: 100.0 mg/kg/injection, schedule: Q04DX003 (ip), vehicle: saline with Tween-80 86 % of control | dose: 200.0 mg/kg/injection, schedule: Q04DX003 (ip), vehicle: saline with Tween-80 93 % of control | dose: 400.0 mg/kg/injection, schedule: Q04DX003 (ip), vehicle: saline with Tween-80 90 % of control

NC(=O)C1(N2CCCCC2)CCN(CCCC(=O)c2ccc(F)cc2)CC1
inactive: dose: 6.25 mg/kg/injection, schedule: Q01DX009 (ip), vehicle: saline 108 % of control | [6] 108 % of control | [7] 113 % of control | [8] 105 % of control | [9] 105 % of control

C=C1CCC2(C)C(O)CC3(C)C(CCC4C5(C)CCC(OC(C)=O)C(C)(C)C5CCC43C)C2C1C (stereo unspecified)
inactive: dose: 1.0 mg/kg/injection, schedule: Q01DX009 (ip), vehicle: other 107 % of control | dose: 2.0 mg/kg/injection, schedule: Q01DX009 (ip), vehicle: other 101 % of control | dose: 4.0 mg/kg/injection, schedule: Q01DX009 (ip), vehicle: other 102 % of control

COCc1cc(C(C)(C)C)c(O)c(C(C)(C)C)c1
inactive: [1] 90 % of control | [2] 92 % of control | [11] 95 % of control

Clc1ccc(/C=N\N=C\c2ccc(Cl)c(Cl)c2)cc1Cl
inactive: [1] 90 % of control | [2] 90 % of control

CCOc1ccccc1NC(=O)c1cccc(C(=O)Nc2ccccc2OCC)c1
inactive: [1] 105 % of control | [2] 94 % of control | [11] 94 % of control

Cc1ccc(C(=O)NCCCOc2ccc(N3C(N)=NC(N)=NC3(C)C)cc2Cl)cc1S(=O)(=O)F
inactive: [6] 96 % of control | [7] 91 % of control
